US20260083865A1, “PROSTATE SPECIFIC MEMBRANE ANTIGEN (PSMA) LIGANDS AND USE THEREOF” (priority 2022, published 2026)
Like-named read-outs stand apart in the source and are kept apart here. Numbered stars: 1 amine (or outer) side, 2 acyl side, 3 side chain; on linkers, the order of the positions; unused ones are H or OH. Bridge positions count the residues as written; N and C are the ends. Square brackets hold non-standard residues; d marks the D form. Peptide text beside a SMILES is read from it. * marks the point of attachment. Acetyl(1-DOTA-4-piperidyl) = O=C(O)CN1CCN(CC(=O)O)CCN(CC(=O)N2CCC(CC(=O)*)CC2)CCN(CC(=O)O)CC1; DOTA = O=C(O)CN1CCN(CC(=O)O)CCN(CC(=O)*)CCN(CC(=O)O)CC1; Ala(quinolin-3-yl) = N[C@@H](Cc1cnc2ccccc2c1)C(=O)O; Phe(4-SO3H) = N[C@@H](Cc1ccc(S(=O)(=O)O)cc1)C(=O)O; Phe(4-Cl) = N[C@@H](Cc1ccc(Cl)cc1)C(=O)O; Arg(Me) = CNC(=N)NCCC[C@H](N)C(=O)O; X1 = O=C(CC1CCN([*:1])CC1)[*:2]; Lys(Me) = CNCCCC[C@H](N)C(=O)O; Tle = CC(C)(C)[C@H](N)C(=O)O; Nle = CCCC[C@H](N)C(=O)O; Aib = CC(C)(N)C(=O)O; CH2 = C([*:1])[*:2]; NHBu = CCCCN*

Tests used:
[1] = target: T1, PSMA-expressing C4-2 cells (Homo sapiens, UniProt Q04609); assay: FACS binding assay (competition with 50 nM PSM-0183); conditions: for IC50: read-out: pIC50 [C4-2] CAT (converted)
T1 construct: PSMA-expressing C4-2 cells (ATCC, Cat. No. CRL-3314) were cultured in RPMI-1640; host or cells: C4-2 cells
Outline: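 C4-2 cells were incubated 1 h at 4 °C with 50 nM AF488-labelled peptide PSM-0183 plus increasing test compound concentrations, then washed twice in ice-cold buffer. Median fluorescence in the AF488 channel was read by flow cytometry. IC50/pIC50 was derived by 4PL fitting of MFI versus concentration.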

[2] = target: T2, Fc-fusion protein of human PSMA (hPSMA-Fc) (Homo sapiens, UniProt Q04609); assay: Surface plasmon resonance assay (Biacore T200, single cycle kinetic); type: binding; conditions: for Kd: read-out: pKD CAT (converted)
T2 construct: purchased Acro Biosystems PSA-H5264
Outline: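 hPSMA-Fc was captured (~1000 RU) on an Fc-binding-peptide CM5 chip, and compounds were run in single cycle kinetic mode at 25° C in HBST with 0.1% DMSO. Double-blank-corrected sensorgrams were fitted to a 1:1 Langmuir model to give KD, reported as pKD.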

[3] = pIC50 category of FACS binding, C4-2 cells
[4] = pKD category for PSMA SPR activity assay, hPSMA-Fc, 25° C.

T2 sequence (Q04609 44-750 limits assumed): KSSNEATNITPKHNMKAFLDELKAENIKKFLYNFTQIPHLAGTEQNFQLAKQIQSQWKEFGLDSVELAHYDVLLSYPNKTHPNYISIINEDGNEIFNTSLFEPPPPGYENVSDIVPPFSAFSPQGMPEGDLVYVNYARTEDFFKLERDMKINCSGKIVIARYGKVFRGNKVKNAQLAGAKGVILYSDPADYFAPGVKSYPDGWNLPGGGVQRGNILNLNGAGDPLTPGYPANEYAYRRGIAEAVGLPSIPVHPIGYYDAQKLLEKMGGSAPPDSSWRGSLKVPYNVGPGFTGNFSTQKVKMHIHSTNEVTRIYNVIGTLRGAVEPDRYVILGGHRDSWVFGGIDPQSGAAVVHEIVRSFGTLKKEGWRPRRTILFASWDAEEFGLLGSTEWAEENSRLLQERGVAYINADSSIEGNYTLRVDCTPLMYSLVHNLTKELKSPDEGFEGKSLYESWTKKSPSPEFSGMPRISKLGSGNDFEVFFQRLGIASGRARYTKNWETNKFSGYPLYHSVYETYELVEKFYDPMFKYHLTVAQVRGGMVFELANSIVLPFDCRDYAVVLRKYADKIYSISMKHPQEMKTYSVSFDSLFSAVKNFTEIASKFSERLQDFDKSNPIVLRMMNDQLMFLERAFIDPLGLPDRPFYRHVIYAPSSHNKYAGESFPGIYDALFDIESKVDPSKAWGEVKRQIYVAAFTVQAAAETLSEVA
T1 sequence (Q04609 whole entry): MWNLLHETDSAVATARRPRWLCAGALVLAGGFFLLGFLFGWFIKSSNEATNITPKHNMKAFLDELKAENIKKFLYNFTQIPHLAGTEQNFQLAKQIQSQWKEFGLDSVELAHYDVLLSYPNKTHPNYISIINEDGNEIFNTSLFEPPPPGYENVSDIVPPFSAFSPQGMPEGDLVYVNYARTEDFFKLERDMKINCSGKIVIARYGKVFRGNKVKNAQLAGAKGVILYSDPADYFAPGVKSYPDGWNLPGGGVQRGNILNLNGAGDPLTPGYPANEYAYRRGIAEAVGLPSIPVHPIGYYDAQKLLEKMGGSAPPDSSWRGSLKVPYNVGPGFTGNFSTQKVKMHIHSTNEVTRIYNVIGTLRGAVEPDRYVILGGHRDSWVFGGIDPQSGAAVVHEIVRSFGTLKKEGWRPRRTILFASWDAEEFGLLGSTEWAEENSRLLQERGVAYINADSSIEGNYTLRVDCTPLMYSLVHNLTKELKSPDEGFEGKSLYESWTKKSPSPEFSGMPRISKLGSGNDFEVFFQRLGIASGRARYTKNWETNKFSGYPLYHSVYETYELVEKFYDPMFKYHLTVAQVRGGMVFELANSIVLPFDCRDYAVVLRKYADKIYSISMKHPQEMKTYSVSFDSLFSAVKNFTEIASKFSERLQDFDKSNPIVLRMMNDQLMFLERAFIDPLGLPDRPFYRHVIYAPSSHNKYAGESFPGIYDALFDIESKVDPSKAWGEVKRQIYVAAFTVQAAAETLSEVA

IC50 [1, 3] [nM] | Kd [2, 4] [nM] | Compound | other results
> 3160 | > 501 | C[C@@H](O)[C@H](NC(=O)[C@@H](NC(=O)[C@@H]1CSSC[C@H](NC(=O)[C@H](Cc2ccc(S(=O)(=O)O)cc2)NC(=O)C(C)(C)NC(=O)[C@@H](NC(=O)CC2CCN(C(=O)CN3CCN(CC(=O)O)CCN(CC(=O)O)CCN(CC(=O)O)CC3)CC2)[C@@H](C)O)C(=O)N[C@@H](CCCCN)C(=O)N[C@@H](CCCNC(=N)N)C(=O)NC(C)(C)C(=O)N[C@@H](CC(N)=O)C(=O)N1)C(C)(C)C)C(N)=O [PSM-0386, DOTA-Cmp-Thr-Aib-Fso-[Cys-Lys-Arg-Aib-Asn-Cys]-Tle-Thr-NH2] ({DOTA}-[X1]T[Aib][Phe(4-SO3H)]CKR[Aib]NC[Tle]T-NH2; disulfide 5-10) | 
 |  | Ac-Thr-Aib-Phe-[Cys-Lys-Arg-Aib-Asn-Cys]-Tle-Thr-Cmp-lys (InDOTA)-NH2 [PSM-0440] | pIC50 [C4-2] CAT [1, 3]: A (pIC50 values >6.7); pKD CAT [2, 4]: A (pKD values >7.9)
< 200 | < 12.6 | CCCCNC(=O)[C@@H](NC(=O)[C@@H]1CSSC[C@H](NC(=O)[C@H](Cc2ccccc2)NC(=O)C(C)(C)NC(=O)[C@@H](NC(C)=O)[C@@H](C)O)C(=O)N[C@@H](CCCCN)C(=O)N[C@@H](CCCNC(=N)N)C(=O)NC(C)(C)C(=O)N[C@@H](CC(N)=O)C(=O)N1)C(C)(C)C [PSM-0510, Ac-Thr-Aib-Phe-[Cys-Lys-Arg-Aib-Asn-Cys]-Tle-NHBu] (Ac-T[Aib]FCKR[Aib]NC[Tle]-NHBu; disulfide 4-9) | 
 |  | CNCCCC[C@@H]1NC(=O)[C@@H](NC(=O)[C@H](Cc2cnc3ccccc3c2)NC(=O)C(C)(C)NC(=O)[C@@H](NC(=O)CC2CCN(C(=O)CN3CCN(CC(=O)O)CCN(CC(=O)O)CCN(CC(=O)O)CC3)CC2)[C@@H](C)O)CSSC[C@@H](C(=O)N[C@H](C(=O)N[C@H](C(N)=O)[C@@H](C)O)C(C)(C)C)NC(=O)[C@H](CC(N)=O)NC(=O)C(C)(C)NC(=O)[C@H](CCCNC(=N)NC)NC1=O [PSM-0337, DOTA-Cmp-Thr-Aib-2Qi-[Cys-Lys(Me)-Arg(Me)-Aib-Asn-Cys]-Tle-Thr-NH2] ({DOTA}-[X1]T[Aib][Ala(quinolin-3-yl)]C[Lys(Me)][Arg(Me)][Aib]NC[Tle]T-NH2; disulfide 5-10) | IC50 ([1]; FACS binding, PSMA-expressing C4-2 cells, pIC50 category): 1260 to 3160 nM; Kd ([2]; PSMA SPR assay, hPSMA-Fc, 25° C., pKD category): > 501 nM
< 200 | < 12.6 | CNCCCC[C@@H]1NC(=O)[C@@H](NC(=O)[C@H](Cc2ccc(Cl)cc2)NC(=O)C(C)(C)NC(=O)[C@@H](NC(=O)CC2CCN(C(=O)CN3CCN(CC(=O)O)CCN(CC(=O)O)CCN(CC(=O)O)CC3)CC2)[C@@H](C)O)CSCSC[C@@H](C(=O)N[C@H](C(N)=O)C(C)(C)C)NC(=O)[C@H](CC(N)=O)NC(=O)C(C)(C)NC(=O)[C@H](CCCNC(=N)NC)NC1=O [PSM-0420, DOTA-Cmp-Thr-Aib-Pcf-[Smc-Lys(Me)-Arg(Me)-Aib-Asn-Cys]-Tle-NH2] ({DOTA}-[X1]T[Aib][Phe(4-Cl)]C[Lys(Me)][Arg(Me)][Aib]NC[Tle]-NH2; linker 5-10 via CH2) | 
< 200 | 12.6 to 126 | CC(=O)N[C@H](C(=O)NC(C)(C)C(=O)N[C@@H](Cc1ccccc1)C(=O)N[C@H]1CSSC[C@@H](C(=O)N[C@H](C(=O)N[C@H](C(N)=O)[C@@H](C)O)C(C)(C)C)NC(=O)[C@H](CC(N)=O)NC(=O)[C@H](CCCCNC(=O)CC2CCN(C(=O)CN3CCN(CC(=O)O)CCN(CC(=O)O)CCN(CC(=O)O)CC3)CC2)NC(=O)[C@H](CCCNC(=N)N)NC(=O)[C@H](CCCCN)NC1=O)[C@@H](C)O [PSM-0415, Ac-Thr-Aib-Phe-[Cys-Lys-Arg-Lys(DOTA-Cmp)-Asn-Cys]-Tle-Thr-NH2] (Ac-T[Aib]FCKRK(Acetyl(1-DOTA-4-piperidyl))NC[Tle]T-NH2; disulfide 4-9) | 
 |  | CCCC[C@H](NC(=O)[C@@H]1CSSC[C@H](NC(=O)[C@H](Cc2ccccc2)NC(=O)[C@H](C)NC(=O)[C@@H](NC(C)=O)[C@@H](C)O)C(=O)N[C@@H](CCCCN)C(=O)N[C@@H](C)C(=O)N[C@@H](C)C(=O)N[C@@H](CC(N)=O)C(=O)N1)C(=O)N[C@H](C(=O)N[C@@H](CC(=O)O)C(N)=O)[C@@H](C)O [PSM-0581, Ac-Thr-Ala-Phe-[Cys-Lys-Ala-Ala-Asn-Cys]-Nle-Thr-Asp-NH2] (Ac-TAFCKAANC[Nle]TD-NH2; disulfide 4-9) | IC50 ([1]; FACS binding, C4-2 cells, category): 1260 to 3160 nM; Kd ([2]; PSMA SPR assay, category): > 501 nM
